In PubChem BioAssay (NCI):
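Exposure lasted 48 hours, with cells grown in 96-well plates and compounds tested at five concentrations. TGI denotes the concentration required for complete inhibition of growth.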

Key:
Assay in all cases: DTP human tumour cell line panel, 48 h
[1] = test system: 786-0 renal
[2] = test system: A498 renal
[3] = test system: A549 NSCLC
[4] = test system: ACHN renal
[5] = test system: BT-549 breast
[6] = test system: CAKI-1 renal
[7] = test system: CCRF-CEM leukemia
[8] = test system: COLO 205 colon
[9] = test system: DU-145 prostate
[10] = test system: EKVX NSCLC
[11] = test system: HCC-2998 colon
[12] = test system: HCT-116 colon
[13] = test system: HCT-15 colon
[14] = test system: HL-60(TB) leukemia
[15] = test system: HOP-62 NSCLC
[16] = test system: HOP-92 NSCLC
[17] = test system: HS 578T breast
[18] = test system: HT29 colon
[19] = test system: IGROV1 ovarian
[20] = test system: K-562 leukemia
[21] = test system: KM12 colon
[22] = test system: LOX IMVI melanoma
[23] = test system: M14 melanoma
[24] = test system: MALME-3M melanoma
[25] = test system: MDA-MB-231 breast
[26] = test system: MDA-MB-435
[27] = test system: MDA-N
[28] = test system: MOLT-4 leukemia
[29] = test system: NCI-H226 lung
[30] = test system: NCI-H23 lung
[31] = test system: NCI-H460 lung
[32] = test system: NCI-H522 lung
[33] = test system: NCI/ADR-RES ovarian
[34] = test system: OVCAR-3 ovarian
[35] = test system: OVCAR-5 ovarian
[36] = test system: OVCAR-8 ovarian
[37] = test system: PC-3 prostate
[38] = test system: RPMI-8226 leukemia
[39] = test system: RXF 393 renal
[40] = test system: SF-268 CNS
[41] = test system: SF-295 CNS
[42] = test system: SF-539 CNS
[43] = test system: SK-MEL-28 melanoma
[44] = test system: SK-MEL-5 melanoma
[45] = test system: SK-OV-3 ovarian
[46] = test system: SN12C renal
[47] = test system: SNB-19 CNS
[48] = test system: SNB-75 CNS
[49] = test system: SR leukemia
[50] = test system: SW-620 colon
[51] = test system: T-47D breast
[52] = test system: TK-10 renal
[53] = test system: U251 CNS
[54] = test system: UACC-257 melanoma
[55] = test system: UACC-62 melanoma
[56] = test system: UO-31 renal
[57] = test system: MCF7 breast
[58] = test system: OVCAR-4 ovarian
[59] = test system: SK-MEL-2 melanoma

**Q.** With `CCOC(=O)/C(C#N)=C/c1coc2cc(C)cc(C)c2c1=O` as the compound, how does the TGI [1] read?
**A.** The TGI was over 100 µM.

**Q.** And the TGI [2]?
**A.** Its TGI is over 100 µM.

**Q.** And the TGI [3]?
**A.** The TGI was over 100 µM.

**Q.** What about the TGI [4] of the same compound?
**A.** The TGI was over 100 µM.

**Q.** What about the TGI [5] of the same compound?
**A.** The TGI was over 100 µM.

**Q.** And the TGI [6]?
**A.** The TGI was over 100 µM.

**Q.** What about the TGI [7] of the same compound?
**A.** Its TGI is over 100 µM.

**Q.** And the TGI [8]?
**A.** Its TGI is over 100 µM.

**Q.** What about the TGI [9] of the same compound?
**A.** Its TGI is over 100 µM.

**Q.** And the TGI [10]?
**A.** Its TGI is over 100 µM.

**Q.** And the TGI [11]?
**A.** The TGI was over 100 µM.

**Q.** What about the TGI [12] of the same compound?
**A.** Its TGI is over 100 µM.

**Q.** What about the TGI [13] of the same compound?
**A.** The TGI was over 100 µM.

**Q.** And the TGI [14]?
**A.** The TGI was over 100 µM.

**Q.** What about the TGI [15] of the same compound?
**A.** Its TGI is over 100 µM.

**Q.** And the TGI [16]?
**A.** The TGI was over 100 µM.

**Q.** And the TGI [17]?
**A.** The TGI was over 100 µM.

**Q.** What about the TGI [18] of the same compound?
**A.** Its TGI is over 100 µM.

**Q.** And the TGI [19]?
**A.** Its TGI is over 100 µM.

**Q.** What about the TGI [20] of the same compound?
**A.** Its TGI is over 100 µM.

**Q.** And the TGI [21]?
**A.** Its TGI is over 100 µM.

**Q.** And the TGI [22]?
**A.** Its TGI is over 100 µM.

**Q.** And the TGI [23]?
**A.** Its TGI is over 100 µM.

**Q.** What about the TGI [24] of the same compound?
**A.** The TGI was over 100 µM.

**Q.** And the TGI [25]?
**A.** Its TGI is over 100 µM.

**Q.** What about the TGI [26] of the same compound?
**A.** Its TGI is over 100 µM.

**Q.** And the TGI [27]?
**A.** Its TGI is over 100 µM.

**Q.** What about the TGI [28] of the same compound?
**A.** The TGI was over 100 µM.

**Q.** What about the TGI [29] of the same compound?
**A.** Its TGI is over 100 µM.

**Q.** What about the TGI [30] of the same compound?
**A.** The TGI was over 100 µM.

**Q.** And the TGI [31]?
**A.** Its TGI is over 100 µM.

**Q.** What about the TGI [32] of the same compound?
**A.** The TGI was over 100 µM.

**Q.** And the TGI [33]?
**A.** Its TGI is over 100 µM.

**Q.** What about the TGI [34] of the same compound?
**A.** Its TGI is over 100 µM.

**Q.** And the TGI [35]?
**A.** The TGI was over 100 µM.

**Q.** What about the TGI [36] of the same compound?
**A.** Its TGI is over 100 µM.

**Q.** What about the TGI [37] of the same compound?
**A.** The TGI was over 100 µM.

**Q.** And the TGI [38]?
**A.** Its TGI is over 100 µM.

**Q.** What about the TGI [39] of the same compound?
**A.** Its TGI is over 100 µM.

**Q.** What about the TGI [40] of the same compound?
**A.** The TGI was over 100 µM.

**Q.** What about the TGI [41] of the same compound?
**A.** The TGI was over 100 µM.

**Q.** What about the TGI [42] of the same compound?
**A.** Its TGI is over 100 µM.

**Q.** What about the TGI [43] of the same compound?
**A.** Its TGI is over 100 µM.

**Q.** What about the TGI [44] of the same compound?
**A.** Its TGI is over 100 µM.

**Q.** What about the TGI [45] of the same compound?
**A.** The TGI was over 100 µM.

**Q.** And the TGI [46]?
**A.** The TGI was over 100 µM.

**Q.** And the TGI [47]?
**A.** Its TGI is over 100 µM.

**Q.** And the TGI [48]?
**A.** Its TGI is over 100 µM.

**Q.** What about the TGI [49] of the same compound?
**A.** Its TGI is over 100 µM.

**Q.** And the TGI [50]?
**A.** The TGI was over 100 µM.

**Q.** What about the TGI [51] of the same compound?
**A.** The TGI was over 100 µM.

**Q.** What about the TGI [52] of the same compound?
**A.** Its TGI is over 100 µM.

**Q.** And the TGI [53]?
**A.** The TGI was over 100 µM.

**Q.** What about the TGI [54] of the same compound?
**A.** The TGI was over 100 µM.

**Q.** And the TGI [55]?
**A.** Its TGI is over 100 µM.

**Q.** What about the TGI [56] of the same compound?
**A.** Its TGI is over 100 µM.

**Q.** What does the source list for `Cc1cc(OC(=O)Nc2cccc3ccccc23)c(C(C)C)cc1C(=S)Nc1ccccc1`?
**A.** TGI [1]: 56.6 µM; TGI [3]: > 100 µM; TGI [4]: 73.5 µM; TGI [5]: 32.1 µM; TGI [6]: 54.7 µM; TGI [7]: 27.5 µM; TGI [8]: 39.4 µM; TGI [9]: 82 µM; TGI [10]: 61.6 µM; TGI [11]: 38.8 µM; TGI [12]: 32.4 µM; TGI [13]: 29.2 µM; TGI [14]: 15.1 µM; TGI [15]: 34.9 µM; TGI [17]: 55.2 µM; TGI [18]: 35.8 µM; TGI [19]: 30.4 µM; TGI [20]: 43.2 µM; TGI [21]: 36.4 µM; TGI [22]: 28.7 µM; TGI [23]: 37 µM; TGI [24]: 36.8 µM; TGI [57]: 34.7 µM; TGI [26]: 33.5 µM; TGI [27]: 33.3 µM; TGI [28]: 52.4 µM; TGI [30]: 34.3 µM; TGI [31]: 47.1 µM; TGI [32]: 29.1 µM; TGI [33]: 52.1 µM; TGI [34]: 33.5 µM; TGI [58]: 35 µM; TGI [35]: 46 µM; TGI [36]: 28.8 µM; TGI [37]: 42.2 µM; TGI [38]: 75.8 µM; TGI [40]: 77.6 µM; TGI [41]: 36.8 µM; TGI [42]: 36.9 µM; TGI [59]: 28.3 µM; TGI [43]: 35.3 µM; TGI [44]: 27.9 µM; TGI [45]: 51.7 µM; TGI [47]: 71.3 µM; TGI [49]: 33.5 µM; TGI [50]: 43.3 µM; TGI [51]: 53.6 µM; TGI [53]: 35.4 µM; TGI [54]: 50.5 µM; TGI [55]: 26.5 µM; TGI [56]: 40.2 µM
